Experimental data taken from patent US10906924B2, “Modulators of indoleamine 2,3-dioxygenase” (GLAXOSMITHKLINE INTELLECTUAL PROPERTY DEVELOPMENT LIMITED, priority 2017, dated 2021).
Where a name gives a salt, the structure may show the parent alone.

Target: indoleamine 2,3-dioxygenase (IDO1) (Homo sapiens, UniProt P14902)
Experiment: PBMC IDO1 assay (kynurenine by mass spectrometry)
Assay type: cell-based
Details: human PBMC stimulated with IFN-γ and LPS, 2 days incubation, kynurenine detected by mass spectrometry; read-out: IDO1 PBMC pIC50 (converted)

Sequence of indoleamine 2,3-dioxygenase (IDO1) (P14902 whole entry): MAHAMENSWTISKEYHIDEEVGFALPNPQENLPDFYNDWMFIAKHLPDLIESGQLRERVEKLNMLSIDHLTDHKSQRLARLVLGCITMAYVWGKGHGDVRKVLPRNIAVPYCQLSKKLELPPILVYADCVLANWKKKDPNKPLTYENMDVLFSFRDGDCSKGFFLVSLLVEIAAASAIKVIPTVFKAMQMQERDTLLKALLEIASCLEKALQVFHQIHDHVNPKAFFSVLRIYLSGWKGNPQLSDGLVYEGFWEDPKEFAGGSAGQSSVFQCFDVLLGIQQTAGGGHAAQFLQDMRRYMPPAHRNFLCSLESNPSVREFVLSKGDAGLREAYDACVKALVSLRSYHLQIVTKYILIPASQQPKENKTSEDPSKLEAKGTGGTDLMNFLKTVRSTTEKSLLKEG

Row | Compound | IC50
1 | CCOC(=O)N1CCC2(CC1)CC(NC(=O)c1cccc3cc[nH]c13)c1c(Br)cccc1O2 (stereo not shown) [Example 17, ethyl 5-bromo-4-(1H-indole-7-carboxamido)spiro[chroman-2,4′-piperidine]-1′-carboxylate] | 39.8 nM
2 | COC(=O)N1CCC2(CC1)C[C@H](NC(=O)c1cccc3cn[nH]c13)c1cc(Br)ccc1O2 [Example 5, (S)-methyl 6-bromo-4-(1H-indazole-7-carboxamido)spiro[chroman-2,4′-piperidine]-1′-carboxylate] | 5.01 nM
3 | CCOC(=O)N1CCC2(CC1)CC(NC(=O)c1cccc3cn[nH]c13)c1nc(OC)ccc1O2 (stereo not shown) [Example 9, ethyl 4′-(1H-indazole-7-carboxamido)-6′-methoxy-3′,4′-dihydrospiro[piperidine-4,2′-pyrano[3,2-b]pyridine]-1-carboxylate] | 10 nM
4 | COC(=O)N1CCC2(CC1)C[C@H](NC(=O)c1cccc3cc[nH]c13)c1cc(Br)ccc1O2 [Example 4, (S)-methyl 6-bromo-4-(1H-indole-7-carboxamido)spiro[chroman-2,4′-piperidine]-1′-carboxylate] | 3.98 nM
5 | CCOC(=O)N1CCC2(CC1)C[C@H](NC(=O)c1cccc3c(COC(C)=O)[nH]nc13)c1cc(Br)ccc1O2 [Example 61, ethyl (S)-4-(3-(acetoxymethyl)-1H-indazole-7-carboxamido)-6-bromo spiro[chromane-2,4′-piperidine]-1′-carboxylate] | 1.26 nM
6 | CCOC(=O)N1CCC2(CC1)CC(NC(=O)c1cccc3cn[nH]c13)c1cc(Br)ncc1O2 (stereo not shown) [Example 16, ethyl 6′-bromo-4′-(1H-indazole-7-carboxamido)-3′,4′-dihydrospiro[piperidine-4,2′-pyrano[2,3-c]pyridine]-1-carboxylate] | 31.6 nM
7 | COC(=O)N1CCC2(CC1)C[C@H](NC(=O)c1cccc3cn[nH]c13)c1nc(OC)ccc1O2 [Example 57, methyl (S)-4′-(1H-indazole-7-carboxamido)-6′-methoxy-3′,4′-dihydrospiro[piperidine-4,2′-pyrano[3,2-b]pyridine]-1-carboxylate] | 10 nM
8 | CCOC(=O)N1CCC2(CC1)CC(NC(=O)c1cccc3cc[nH]c13)c1ccc(Br)cc1O2 (stereo not shown) [Example 24, ethyl 7-bromo-4-(1H-indole-7-carboxamido)spiro[chroman-2,4′-piperidine]-1′-carboxylate] | 100 nM
9 | CCOC(=O)N1CCC2(CC1)C[C@H](NC(=O)c1cccc3cn(COP(=O)(O)O)nc13)c1ccccc1O2 [Example 55, 2-amino-2-(hydroxymethyl)propane-1,3-diol hemi((S)-(7-((1′-(ethoxycarbonyl)spiro[chroman-2,4′-piperidin]-4-yl)carbamoyl)-2H-indazol-2-yl)methyl phosphate)] | 126 nM
10 | CCOC(=O)N1CCC2(CC1)CC(NC(=O)c1cccc3cn[nH]c13)c1cc(Br)cnc1O2 (stereo not shown) [Example 23, ethyl 6′-bromo-4′-(1H-indazole-7-carboxamido)-3′,4′-dihydrospiro[piperidine-4,2′-pyrano[2,3-b]pyridine]-1-carboxylate] | 79.4 nM
11 | CCOC(=O)N1CCC2(CC1)CC(NC(=O)c1cncc(F)c1)c1ccccc1O2 (stereo not shown) [Example 30, ethyl 4-(5-fluoronicotinamido)spiro[chroman-2,4′-piperidine]-1′-carboxylate] | 200 nM
12 | CCOC(=O)N1CCC2(CC1)C[C@H](NC(=O)c1ncc[nH]1)c1cc(Br)ccc1O2 [Example 32, (S)-ethyl 6-bromo-4-(1H-imidazole-2-carboxamido)spiro[chroman-2,4′-piperidine]-1′-carboxylate] | 200 nM
13 | O=C(N[C@H]1CC2(CCN(C(=O)Oc3ccccc3)CC2)Oc2ccc(Br)cc21)c1cccc2cn[nH]c12 [Example 31, (S)-phenyl 6-bromo-4-(1H-indazole-7-carboxamido)spiro[chroman-2,4′-piperidine]-1′-carboxylate] | 200 nM
14 | CCOC(=O)N1CCC2(CC1)C[C@H](NC(=O)c1cccc3cn(COP(=O)(O)O)nc13)c1nc(OC)ccc1O2 [Example 56, ethyl (S)-6′-methoxy-4′-(2-((phosphonooxy)methyl)-2H-indazole-7-carboxamido)-3′,4′-dihydrospiro[piperidine-4,2′-pyrano[3,2-b]pyridine]-1-carboxylate, bis 2-amino-2-(hydroxymethyl)-1,3-propanediol salt] | 79.4 nM
15 | CCOC(=O)N1CCC2(CC1)CC(NC(=O)c1cncc3cn[nH]c13)c1ccccc1O2 (stereo not shown) [Example 26, ethyl 4-(1H-pyrazolo[4,3-c]pyridine-7-carboxamido)spiro[chroman-2,4′-piperidine]-1′-carboxylate] | 126 nM
16 | CCOC(=O)N1CCC2(CC1)CC(NC(=O)c1cccc3ccn(C)c13)c1ccccc1O2 (stereo not shown) [Example 38, ethyl 4-(1-methyl-1H-indole-7-carboxamido)spiro[chroman-2,4′-piperidine]-1′-carboxylate] | 398 nM
17 | CCOC(=O)N1CCC2(CC1)CC(NC(=O)c1cccc3cn[nH]c13)c1ncccc1O2 (stereo not shown) [Example 29, ethyl 4′-(1H-indazole-7-carboxamido)-3′,4′-dihydrospiro[piperidine-4,2′-pyrano[3,2-b]pyridine]-1-carboxylate] | 158 nM
18 | CCOC(=O)N1CCC2(CC1)CC(NC(=O)c1cccc3cn[nH]c13)c1cccnc1O2 (stereo not shown) [Example 42, ethyl 4′-(1H-indazole-7-carboxamido)-3′,4′-dihydrospiro[piperidine-4,2′-pyrano[2,3-b]pyridine]-1-carboxylate] | 501 nM
19 | CCOC(=O)N1CCC2(CC1)CC(NC(=O)c1ncccc1OC)c1ccccc1O2 (stereo not shown) [Example 46, ethyl 4-(3-methoxypicolinamido)spiro[chroman-2,4′-piperidine]-1′-carboxylate] | 794 nM
20 | CCOC(=O)N1CCC2(CC1)C[C@H](NC(=O)c1cccc3c(COC(=O)CCC(=O)O)[nH]nc13)c1cc(Br)ccc1O2 [Example 60, (S)-4-((7-((6-bromo-1′-(ethoxycarbonyl)spiro[chromane-2,4′-piperidin]-4-yl)carbamoyl)-1H-indazol-3-yl)methoxy)-4-oxobutanoic acid] | 1.26 nM

Continued, values first:

Row | IC50 | Compound
21 | 631 nM | CCOC(=O)N1CCC2(CC1)C[C@H](NC(=O)c1ccn[nH]1)c1cc(Br)ccc1O2 [Example 44, (S)-ethyl 6-bromo-4-(1H-pyrazole-5-carboxamido)spiro[chroman-2,4′-piperidine]-1′-carboxylate]
22 | 0.794 nM | CCOC(=O)N1CCC2(CC1)C[C@H](NC(=O)c1cccc3c(CO)n[nH]c13)c1cc(Br)ccc1O2 [Example 59, ethyl (S)-6-bromo-4-(3-(hydroxymethyl)-1H-indazole-7-carboxamido) spiro[chromane-2,4′-piperidine]-1′-carboxylate]
23 | 501 nM | CCOC(=O)N1CCC2(CC1)C[C@H](NC(=O)c1cccc3cn(COP(=O)(O)O)nc13)c1cc(Br)ncc1O2 [Example 58, (S)-ethyl 6′-bromo-4′-(2-((phosphonooxy)methyl)-2H-indazole-7-carboxamido)-3′,4′-dihydrospiro[piperidine-4,2′-pyrano[2,3-c]pyridine]-1-carboxylate]
24 | 631 nM | CCOC(=O)N1CCC2(CC1)CC(NC(=O)c1ccnn1C)c1ccccc1O2 (stereo not shown) [Example 43, ethyl 4-(1-methyl-1H-pyrazole-5-carboxamido)spiro[chroman-2,4′-piperidine]-1′-carboxylate]
25 | 79.4 nM | CCCC(=O)N1CCC2(CC1)C[C@H](NC(=O)c1cccc3cn[nH]c13)c1cc(Br)ccc1O2 [Example 22, (S)—N-(6-bromo-1′-butyrylspiro[chroman-2,4′-piperidin]-4-yl)-1H-indazole-7-carboxamide]
26 | 794 nM | CCOC(=O)N1CCC2(CC1)CC(NC(=O)c1ncccn1)c1ccccc1O2 (stereo not shown) [Example 45, ethyl 4-(pyrimidine-2-carboxamido)spiro[chroman-2,4′-piperidine]-1′-carboxylate]
27 | 10 nM | CCOC(=O)N1CCC2(CC1)C[C@H](NC(=O)c1cccc3cnn(C(=O)OCC)c13)c1cc(Br)ccc1O2 [Example 51, ethyl (S)-6-bromo-4-(1-(ethoxycarbonyl)-1H-indazole-7-carboxamido)spiro[chromane-2,4′-piperidine]-1′-carboxylate]
28 | 3.98 nM | CCOC(=O)N1CCC2(CC1)C[C@H](NC(=O)c1cccc3cnn(C(C)=O)c13)c1cc(Br)ccc1O2 [Example 52, ethyl (S)-4-(1-acetyl-1H-indazole-7-carboxamido)-6-bromospiro [chromane-2,4′-piperidine]-1′-carboxylate]
29 | 79.4 nM | CCOC(=O)N1CCC2(CC1)CC(NC(=O)c1cccnc1)c1cc(Br)ccc1O2 (stereo not shown) [Example 21, ethyl 6-bromo-4-(nicotinamido)spiro[chroman-2,4′-piperidine]-1′-carboxylate]
30 | 20 nM | COC(=O)N1CCC2(CC1)C[C@H](NC(=O)c1cccc3cn[nH]c13)c1ccccc1O2 [Example 54, methyl (S)-4-(1H-indazole-7-carboxamido)spiro[chromane-2,4′-piperidine]-1′-carboxylate]
31 | 12.6 nM | CCOC(=O)N1CCC2(CC1)C[C@H](NC(=O)c1ccccc1N)c1cc(Br)ccc1O2 [Example 10, (S)-ethyl 4-(2-aminobenzamido)-6-bromospiro[chroman-2,4′-piperidine]-1′-carboxylate]
32 | 5.01 nM | CCOC(=O)N1CCC2(CC1)C[C@H](NC(=O)c1cccc3[nH]ccc13)c1cc(Br)ccc1O2 [Example 8, (S)-ethyl 6-bromo-4-(1H-indole-4-carboxamido)spiro[chroman-2,4′-piperidine]-1′-carboxylate]
33 | 100 nM | CCOC(=O)N1CCC2(CC1)C[C@H](NC(=O)c1cccc(O)n1)c1cc(Br)ccc1O2 [Example 25, (S)-ethyl 6-bromo-4-(6-hydroxypicolinamido)spiro[chroman-2,4′-piperidine]-1′-carboxylate]
34 | 126 nM | CCOC(=O)N1CCC2(CC1)C[C@H](NC(=O)c1cccc3cn(COP(=O)(O)O)nc13)c1cc(Br)ccc1O2 [Example 50, 2-amino-2-(hydroxymethyl)propane-1,3-diol hemi((S)-(7-((6-bromo-1-(ethoxycarbonyl)spiro[chroman-2,4′-piperidin]-4-yl)carbamoyl)-2H-indazol-2-yl)methyl phosphate)]
